Experimental data reported in US10610526B2 (priority 2015, dated 2020).

Key:
[1] = rat, in vivo; cited from earlier work
α6/3β2β3 nAChRs [2] = molecular target: T1, α6/3β2β3 nAChRs (Homo sapiens, UniProt Q15825); test: cell-based; settings: read-out: Agonist Effect Emax
α3β4α5 nAChRs [3] = molecular target: T2, α3β4α5 nAChRs (Homo sapiens, UniProt P30926+P32297); test: cell-based; settings: read-out: Agonist Effect Emax
α3β4α5 nAChRs [4] = molecular target: T2, α3β4α5 nAChRs
α6/3β2β3 nAChRs [5] = molecular target: T1, α6/3β2β3 nAChRs
α7 nAChRs = α7 nAChRs (Homo sapiens, UniProt P36544); type: cell-based
α4β2 nAChRs = α4β2 nAChRs (Homo sapiens, UniProt P17787+P43681); test: cell-based; type: cell-based
α4β2 nAChRs, sequence (P43681 29-627 limits assumed): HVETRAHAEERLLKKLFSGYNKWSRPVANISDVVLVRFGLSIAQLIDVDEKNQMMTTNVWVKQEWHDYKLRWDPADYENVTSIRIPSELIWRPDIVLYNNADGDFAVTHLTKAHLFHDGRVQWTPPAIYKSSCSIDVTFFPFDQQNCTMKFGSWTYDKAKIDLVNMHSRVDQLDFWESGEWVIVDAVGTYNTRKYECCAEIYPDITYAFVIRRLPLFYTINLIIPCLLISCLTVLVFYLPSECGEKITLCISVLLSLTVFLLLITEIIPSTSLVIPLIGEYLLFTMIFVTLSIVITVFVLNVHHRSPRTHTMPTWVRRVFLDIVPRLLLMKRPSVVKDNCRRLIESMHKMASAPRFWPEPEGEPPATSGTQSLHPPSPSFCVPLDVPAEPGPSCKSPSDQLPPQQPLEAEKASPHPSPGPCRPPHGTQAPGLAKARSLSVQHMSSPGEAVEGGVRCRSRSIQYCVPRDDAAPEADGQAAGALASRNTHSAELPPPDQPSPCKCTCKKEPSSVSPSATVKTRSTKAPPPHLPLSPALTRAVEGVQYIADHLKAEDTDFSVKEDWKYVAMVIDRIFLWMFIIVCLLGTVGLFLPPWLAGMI
α4β2 nAChRs, sequence (P17787 26-502): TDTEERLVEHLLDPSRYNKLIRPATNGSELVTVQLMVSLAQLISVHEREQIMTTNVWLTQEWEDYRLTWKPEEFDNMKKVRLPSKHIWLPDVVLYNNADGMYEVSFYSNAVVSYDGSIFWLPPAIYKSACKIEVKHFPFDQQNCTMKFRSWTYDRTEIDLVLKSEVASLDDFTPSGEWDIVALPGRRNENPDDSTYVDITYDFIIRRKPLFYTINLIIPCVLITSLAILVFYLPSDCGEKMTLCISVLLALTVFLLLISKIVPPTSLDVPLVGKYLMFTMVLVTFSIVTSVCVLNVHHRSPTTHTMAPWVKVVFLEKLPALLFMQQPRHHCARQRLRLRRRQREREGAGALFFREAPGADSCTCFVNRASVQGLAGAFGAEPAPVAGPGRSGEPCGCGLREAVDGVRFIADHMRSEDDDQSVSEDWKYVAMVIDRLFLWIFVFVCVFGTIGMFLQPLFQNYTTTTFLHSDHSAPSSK

α7 nAChRs, sequence (P36544 23-502): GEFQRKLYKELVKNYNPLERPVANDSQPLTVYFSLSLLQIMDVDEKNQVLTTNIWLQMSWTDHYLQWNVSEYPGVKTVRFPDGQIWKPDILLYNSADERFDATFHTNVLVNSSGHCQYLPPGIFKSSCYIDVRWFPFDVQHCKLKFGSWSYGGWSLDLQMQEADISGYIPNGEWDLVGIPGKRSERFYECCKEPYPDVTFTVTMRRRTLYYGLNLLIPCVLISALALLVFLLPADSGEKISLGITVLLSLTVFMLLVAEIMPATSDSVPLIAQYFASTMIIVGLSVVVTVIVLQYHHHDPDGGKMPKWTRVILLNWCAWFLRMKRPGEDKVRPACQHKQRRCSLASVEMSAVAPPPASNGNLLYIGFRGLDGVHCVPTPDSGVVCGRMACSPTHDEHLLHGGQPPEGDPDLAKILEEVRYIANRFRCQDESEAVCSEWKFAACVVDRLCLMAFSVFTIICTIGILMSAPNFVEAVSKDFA
T2 sequence (P32297 32-505): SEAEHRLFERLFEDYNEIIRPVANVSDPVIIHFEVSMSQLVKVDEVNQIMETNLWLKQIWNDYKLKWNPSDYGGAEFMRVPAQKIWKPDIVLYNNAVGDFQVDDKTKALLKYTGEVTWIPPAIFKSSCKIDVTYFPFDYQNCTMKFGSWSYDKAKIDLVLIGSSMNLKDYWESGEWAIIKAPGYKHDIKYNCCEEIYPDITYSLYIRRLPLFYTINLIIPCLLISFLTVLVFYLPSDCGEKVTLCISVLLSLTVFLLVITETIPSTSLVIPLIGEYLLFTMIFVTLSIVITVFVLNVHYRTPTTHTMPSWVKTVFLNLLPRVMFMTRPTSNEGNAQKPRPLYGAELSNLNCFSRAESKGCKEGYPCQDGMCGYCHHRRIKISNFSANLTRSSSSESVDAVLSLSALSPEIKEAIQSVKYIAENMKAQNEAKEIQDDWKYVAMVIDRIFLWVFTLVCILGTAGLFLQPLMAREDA
T2 sequence (P30926 22-498): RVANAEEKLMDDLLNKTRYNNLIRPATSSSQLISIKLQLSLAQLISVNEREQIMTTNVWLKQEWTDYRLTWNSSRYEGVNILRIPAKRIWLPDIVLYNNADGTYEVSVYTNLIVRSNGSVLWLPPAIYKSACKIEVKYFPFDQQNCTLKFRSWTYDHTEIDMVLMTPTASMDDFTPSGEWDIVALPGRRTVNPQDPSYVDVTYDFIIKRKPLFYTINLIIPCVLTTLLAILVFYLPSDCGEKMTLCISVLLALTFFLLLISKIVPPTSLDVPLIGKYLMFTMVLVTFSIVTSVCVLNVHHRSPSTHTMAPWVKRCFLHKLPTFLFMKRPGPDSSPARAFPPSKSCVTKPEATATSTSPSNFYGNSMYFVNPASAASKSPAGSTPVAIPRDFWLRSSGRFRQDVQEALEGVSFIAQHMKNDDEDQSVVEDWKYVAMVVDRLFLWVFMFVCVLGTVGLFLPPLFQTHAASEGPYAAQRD
T2 sequence (P30532 23-468 partner): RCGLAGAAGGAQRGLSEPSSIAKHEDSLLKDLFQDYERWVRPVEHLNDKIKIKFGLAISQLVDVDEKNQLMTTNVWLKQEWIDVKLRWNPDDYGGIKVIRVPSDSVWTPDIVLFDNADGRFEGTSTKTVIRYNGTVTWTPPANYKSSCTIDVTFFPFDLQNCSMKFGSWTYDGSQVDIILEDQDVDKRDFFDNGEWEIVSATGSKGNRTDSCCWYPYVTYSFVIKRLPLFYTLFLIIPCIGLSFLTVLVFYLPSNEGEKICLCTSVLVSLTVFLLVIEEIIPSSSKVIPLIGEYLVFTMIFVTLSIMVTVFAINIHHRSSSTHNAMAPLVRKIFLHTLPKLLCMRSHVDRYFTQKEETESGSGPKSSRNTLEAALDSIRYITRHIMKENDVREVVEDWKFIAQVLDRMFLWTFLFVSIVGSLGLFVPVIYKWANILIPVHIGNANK
T1 sequence (Q15825 26-239 limits assumed): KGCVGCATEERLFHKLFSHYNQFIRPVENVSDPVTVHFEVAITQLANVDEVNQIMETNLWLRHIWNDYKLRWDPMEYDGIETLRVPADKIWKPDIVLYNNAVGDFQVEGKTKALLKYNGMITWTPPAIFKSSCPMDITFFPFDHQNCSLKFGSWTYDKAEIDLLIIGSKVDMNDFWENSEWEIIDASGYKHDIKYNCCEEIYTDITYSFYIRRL
T1 sequence (P17787 26-238 limits assumed, further chain): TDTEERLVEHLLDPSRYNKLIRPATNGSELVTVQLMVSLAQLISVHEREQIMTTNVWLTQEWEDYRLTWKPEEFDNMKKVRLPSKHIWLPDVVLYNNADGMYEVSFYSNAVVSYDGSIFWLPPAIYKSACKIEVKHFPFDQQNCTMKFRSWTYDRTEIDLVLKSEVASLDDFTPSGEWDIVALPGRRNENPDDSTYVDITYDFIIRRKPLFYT
T1 sequence (Q05901 22-237 limits assumed, further chain): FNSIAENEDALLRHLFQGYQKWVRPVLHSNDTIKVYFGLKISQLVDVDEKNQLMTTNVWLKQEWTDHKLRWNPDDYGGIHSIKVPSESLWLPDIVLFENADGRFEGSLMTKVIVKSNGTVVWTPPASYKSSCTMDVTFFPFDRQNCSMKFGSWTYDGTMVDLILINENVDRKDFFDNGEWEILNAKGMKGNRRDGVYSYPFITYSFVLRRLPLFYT

| SMILES | carcinogenicity [1] | Emax (α6/3β2β3 nAChRs [2]) | Emax (α3β4α5 nAChRs [3]) | Agonist Effect Hillslope (α3β4α5 nAChRs [4]) | Antagonist Effect Hillslope (α3β4α5 nAChRs [4]) | Agonist Effect Hillslope (α6/3β2β3 nAChRs [5]) | Antagonist Effect Hillslope (α6/3β2β3 nAChRs [5]) | Agonist Effect Hillslope (α7 nAChRs) | Agonist Effect Hillslope (α4β2 nAChRs) | Antagonist Effect Hillslope (α4β2 nAChRs) | agonist character at human α3β4α5 nAChRs (α3β4α5 nAChRs [4]) | agonist character at human α6/3β2β3 nAChRs (α6/3β2β3 nAChRs [5]) | Antagonist Effect Hillslope (α7 nAChRs) | agonist character at human α7 nAChRs (α7 nAChRs) | agonist character at human α4β2 nAChRs (α4β2 nAChRs) | Emax (α4β2 nAChRs; read-out: Agonist Effect Emax) | Agonist Effect Emax (α3β4α5 nAChRs [4]) | Agonist Effect Emax (α6/3β2β3 nAChRs [5]) |
| --- | --- | --- | --- | --- | --- | --- | --- | --- | --- | --- | --- | --- | --- | --- | --- | --- | --- | --- |
| CN1CCCC1c1cccnc1 (stereo not drawn) [synthetic nicotine, nicotine] | not carcinogenic | – | – | – | – | – | – | – | – | – | – | – | – | – | – | – | – | – |
| CN1CCCC1c1cccnc1 (racemic) [Synthetic RS racemic nicotine, RS-Nicotine] | – | 91% | 65% | −2.13 | 1.52 | −0.67 | 1.36 | – | – | – | – | – | – | – | – | – | – | – |
| CN1CCCC1c1cccnc1 (stereo not drawn) [Ref. nicotine (Sigma-Aldrich), nicotine] | – | 100% | 100% | −1.48 | 1.59 | −0.74 | 0.72 | −2.23 | −0.80 | 0.85 | – | – | – | – | – | – | – | – |
| CN1CCC[C@@H]1c1cccnc1 [Synthetic R nicotine, R nicotine] | – | 70% | 21% | −2.37 | 0.95 | −0.92 | 1.07 | −2.37 | −0.87 | 0.67 | partial, weak agonist | full, weak agonist | 2.55 | full, weak agonist | partial agonist | 28% | – | – |
| CN1CCC[C@H]1c1cccnc1 [Synthetic S nicotine, S nicotine] | – | 97% | 96% | −1.48 | 1.11 | −0.70 | 1.10 | – | – | – | – | – | – | – | – | – | – | – |
| CN1CCC[C@H]1c1cccnc1 [Alchem S nicotine, S nicotine] | – | – | – | −1.46 | 1.34 | −0.81 | 0.97 | −3.15 | −0.81 | 1.01 | – | – | 3.06 | – | – | – | 87% | 95% |
| CN1CCC[C@H]1c1cccnc1 [Sigma-Aldrich S nicotine, S nicotine] | – | – | – | −1.91 | 1.38 | −0.69 | 0.96 | −2.49 | −0.84 | 0.94 | – | – | 2.76 | – | – | – | 84% | 100% |
